Assay results: PubChem BioAssay (NCI)
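A five-concentration, 48-hour dose response in 96-well plates underlies each endpoint, interpolated linearly between surrounding concentrations. At the GI50, growth is halved. TGI marks complete inhibition of growth.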

Assays:
Assay in all cases: growth of human tumour cells (NCI), 48 h
DU-145 prostate = test system: DU-145 prostate
KM12 colon = test system: KM12 colon
LOX IMVI melanoma = test system: LOX IMVI melanoma
MALME-3M melanoma = test system: MALME-3M melanoma
MDA-MB-231 breast = test system: MDA-MB-231 breast
NCI-H460 lung = test system: NCI-H460 lung
PC-3 prostate = test system: PC-3 prostate
SF-268 CNS = test system: SF-268 CNS
SK-MEL-5 melanoma = test system: SK-MEL-5 melanoma
UACC-257 melanoma = test system: UACC-257 melanoma
SR leukemia = test system: SR leukemia

| Structure (SMILES) | TGI (DU-145 prostate) [µM] | TGI (KM12 colon) [µM] | TGI (LOX IMVI melanoma) [µM] | TGI (MALME-3M melanoma) [µM] | TGI (MDA-MB-231 breast) [µM] | TGI (NCI-H460 lung) [µM] | TGI (PC-3 prostate) [µM] | TGI (SF-268 CNS) [µM] | TGI (SK-MEL-5 melanoma) [µM] | TGI (UACC-257 melanoma) [µM] | TGI (SR leukemia) [µM] | GI50 (KM12 colon) [µM] | GI50 (SF-268 CNS) [µM] | GI50 (SK-MEL-5 melanoma) [µM] | GI50 (UACC-257 melanoma) [µM] |
| --- | --- | --- | --- | --- | --- | --- | --- | --- | --- | --- | --- | --- | --- | --- | --- |
| CN(C)CCCOc1nc2c(c(=O)n(C)c(=O)n2C)n1C (tested in a mixture with another compound) | 39.5 | > 100 | 9.8 | 27.4 | 32.2 | > 100 | > 100 | > 100 | 48.6 | > 100 | – | – | – | – | – |
| CN1C(=O)C2C(=O)N(Cc3ccccc3)CC(=O)N2c2cccnc21 (stereo not given) | – | > 100 | > 100 | > 100 | > 100 | > 100 | > 100 | > 100 | > 100 | > 100 | > 100 | – | – | – | – |
| OCC1CCCCCCCCCCC12SCCCS2 (stereo not given) | > 100 | > 100 | > 100 | > 100 | – | > 100 | > 100 | > 100 | > 100 | – | > 100 | – | – | – | – |
| OCc1ccc2[n+](c1)CCC1c3ccccc3NC21 (stereo not given) | – | > 300 | > 300 | > 300 | – | > 300 | – | > 300 | > 300 | > 300 | > 300 | – | – | – | – |
| COc1cc(-c2cc(=O)c3cc4c(cc3[nH]2)OCO4)cc(OC)c1O | > 10 | > 10 | > 10 | – | > 10 | > 10 | > 10 | > 10 | > 10 | > 10 | > 10 | – | – | – | – |
| Cc1ccc(-c2c(C#N)c(-c3ccccc3)n(NS(=O)(=O)c3ccccc3)c(=O)c2C#N)cc1 | – | > 100 | > 100 | > 100 | > 100 | > 100 | > 100 | > 100 | > 100 | > 100 | – | – | – | – | – |
| Cc1cc(N(CCC#N)CCC#N)ccc1/C=N/NC(=O)c1cc(Cl)ccc1O | > 100 | – | – | > 100 | > 100 | > 100 | > 100 | > 100 | > 100 | > 100 | > 100 | – | – | – | – |
| O=C(CC(=O)n1nc(-c2ccccc2)c(N=Nc2ccccc2C(=O)O)c1-c1ccccc1)Nc1ccc(Cl)cc1 | – | > 100 | – | > 100 | > 100 | > 100 | > 100 | – | > 100 | > 100 | 42 | – | – | – | – |
| CC1=C2C(=O)NN=C2CCN1c1ccc(Br)cc1 | > 100 | > 100 | > 100 | > 100 | > 100 | > 100 | > 100 | > 100 | > 100 | > 100 | – | – | – | – | – |
| O=C(CN1c2ccccc2Sc2ccccc21)N1CCNCC1 | > 100 | > 100 | > 100 | > 100 | > 100 | > 100 | > 100 | > 100 | > 100 | > 100 | – | – | – | – | – |
| NCC1CCN(c2nc3ccccc3c3c2CCCC3)CC1 | 25.9 | 15.9 | 16 | 26 | 17.2 | 17.6 | 22.5 | 22.7 | 7.62 | 6.84 | – | – | – | – | – |
| Cc1nc2cccc([N+](=O)[O-])c2c(NCCCN(C)C)c1C | > 100 | > 62.4 | > 100 | > 31.6 | – | > 59.6 | > 50.8 | > 100 | > 100 | 57.3 | > 57.5 | – | – | – | – |
| NC(N)=NS(=O)(=O)c1ccc(NCc2c3ccccc3[n+]([O-])c3ccccc23)cc1 | – | > 100 | 90.9 | 51.5 | – | > 100 | – | 86.6 | 33.5 | > 100 | – | – | – | – | – |
| CC(C)(C)C1=C(Br)C(Br)(C(C)(C)C)OP1(=O)c1ccccc1 (stereo not given) | > 100 | > 100 | > 100 | > 100 | – | > 100 | > 100 | > 100 | > 100 | > 100 | > 100 | – | – | – | – |
| COc1ccc(C(C#N)NNC(=O)c2ccccc2O)cc1OC (stereo not given) | – | > 100 | 59.3 | > 100 | – | > 100 | – | > 100 | 46.9 | > 100 | > 100 | – | – | – | – |
| CCOC(=O)C1Cc2[nH]c3ccccc3c2C(C)C1C (stereo not given) | – | 34.6 | 28.2 | 33.2 | – | 33.2 | – | 47.5 | 26.9 | 32.3 | 41.2 | – | – | – | – |
| Cc1nnc(Nc2ccccc2)o1 | > 100 | > 100 | > 100 | > 100 | – | – | > 100 | > 100 | > 100 | > 100 | > 100 | – | – | – | – |
| Nc1cc(CO)cc(Nc2nc3ccc(Cl)cc3c3[nH]c4ccccc4c23)c1 | 15.2 | 18.6 | – | 15.8 | 12 | 6.56 | 19.1 | 10.5 | – | 23.2 | 7.33 | – | – | – | – |
| O=C(NNC(=S)Nc1ccc(Cl)cc1)c1cc(-c2ccccc2)nc2ccccc12 | 16.5 | 22.5 | – | 17.5 | 29.4 | 25.6 | 15.1 | 29.6 | 16.4 | 19.5 | 4.72 | – | – | – | – |
| NC(=O)N/N=C(\Cc1nc2ccc(Cl)cc2[nH]c1=O)C(=O)Nc1ccc(Cl)cc1Cl | > 100 | > 100 | > 100 | > 100 | > 100 | > 100 | > 100 | > 100 | > 100 | > 100 | – | – | – | – | – |
| O=C1OCc2c1cc1ccc(O)c(OC3OC(CO)C(O)C(O)C3O)c1c2-c1ccc2c(c1)OCO2 (stereo not given) | – | > 100 | > 100 | > 100 | – | > 100 | – | > 100 | 74.9 | > 100 | – | 23.4 | 57.1 | 26.2 | 37.9 |
